The record followed here is patent US20100261768A1, “Bioavailable Compositions of Amorphous Alpha-(N-Sulfonamido)Acetamide Compound” (Bristol-Myers Squibb Company, priority 2009, published 2010).

The term solubility denotes the dissolved amount per volume that the medium holds. Higher therefore signals a readily soluble substance.

A short description of data set [1]: bioavailability after particle size reduction. The class given is in vivo. As to the method: (§1) Unfortunately, (2R)-2-[[(4-chlorophenyl)sulfonyl][[2-fluoro-4-(1,2,4-oxadiazol-3-yl)phenyl]methyl]amino]-5,5,5-trifluoropentanamide has poor aqueous solubility that is often characterized as <1 ug/mL at about room temperature. […] Thus, it now appears that in order to provide optimal exposure of the API, an amorphous (non-crystalline) form of the active compound should be provided.

A further data set is described as follows: aqueous solubility. Format: physicochemical. To be noted: aqueous medium; at about room temperature. The method, then: as §1
Data set [2] is described as follows: solubility of the compound in PVP-VA. Format: physicochemical. To be noted: at a temperature of about 100° C. As to the method: In order to prepare the compositions hereinabove described, various preparation means available to the skilled artisan may be utilized. It is preferred that the compositions containing the active compound and PVP-VA be prepared by the methods of hot-melt extrusion or spray-drying, with hot-melt extrusion being more preferred. A processing temperature of about 150-160° C. is preferred for hot-melt extrusion processing of the active compound using apparatus available in the art.

Structures are written as SMILES.

With `NC(=O)[C@@H](CCC(F)(F)F)N(Cc1ccc(-c2ncon2)cc1F)S(=O)(=O)c1ccc(Cl)cc1` [(2R)-2-[[(4-chlorophenyl)sulfonyl][[2-fluoro-4-(1,2,4-oxadiazol-3-yl)phenyl]methyl]amino]-5,5,5-trifluoropentanamide], the “improvement in bioavailability by particle size reduction” value in data set [1] is recorded as “no appreciable improvement”. This compound registered a solubility in the data set “aqueous solubility” of less than 1 µg/mL. Further, the “soluble in PVP-VA” value in data set [2] is reported as “less than 5%”.
